Literature values, collected in patent US20190381034A1, “PHARMACEUTICAL COMPOSITION AND METHOD FOR ACUTE ON CHRONIC LIVER FAILURE AND RELATED LIVER DISEASES” (priority 2018, published 2019).

What was measured:
[1] = in vivo
[2] = laboratory test indicators, liver failure patients, oral TMZ 20 mg three times a day

## COc1ccc(CN2CCNCC2)c(OC)c1OC.Cl.Cl [TMZ, 1-[2,3,4-trimethoxybenzyl] piperazine dihydrochloride]
liver
  liver toxicity: minimal liver toxicity
[1]
  elimination half-life: approximately 6 hours
Liver failure patients; TMZ treatment group, 20 mg tablet orally three times a day, 4-week course, traditional therapeutic approach 44%
  30-day immortality rate of liver failure patients: approximately 18%
Liver failure patients; TMZ treatment group, 20 mg tablet orally three times a day, 4-week course, traditional therapeutic approach 68%
  90-day immortality rate of liver failure patients: 35%
Liver failure patients; [2]
  decrease rate of alanine aminotransferase: significantly raise the decrease rate
  decrease rate of aspartate transaminase: significantly raise the decrease rate
Liver failure patients; one liver failure patient, after taking TMZ
  hepatic glucose metabolism (PET-CT imaging of liver): remarkably improved
